Like-named read-outs stand apart in the source and are kept apart here.
Target: T1, Set9 (His-Set9, His-Set7/9) (Homo sapiens, UniProt Q8WTS6)
T1 sequence (Q8WTS6 1-366): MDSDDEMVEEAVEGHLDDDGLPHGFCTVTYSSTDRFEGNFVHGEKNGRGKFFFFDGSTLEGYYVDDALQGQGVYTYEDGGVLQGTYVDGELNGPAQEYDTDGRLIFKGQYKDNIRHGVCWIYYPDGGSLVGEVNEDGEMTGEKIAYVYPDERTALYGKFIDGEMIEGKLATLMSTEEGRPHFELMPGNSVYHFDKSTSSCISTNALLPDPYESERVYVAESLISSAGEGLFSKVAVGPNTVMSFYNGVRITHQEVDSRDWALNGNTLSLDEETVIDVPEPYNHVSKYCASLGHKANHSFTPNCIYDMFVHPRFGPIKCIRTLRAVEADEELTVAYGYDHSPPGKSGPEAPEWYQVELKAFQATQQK
Assay: Assay for measuring histone methyltransferase activity using peptidyl MCA, inhibitor evaluation with Set9
Format: biochemical
Experimental: When Set9 was adopted as a histone methyltransferase, the following method was used. 10 μL of 2×HMT buffer (100 mM Tris-HCl (pH 8.5), 20 mM MgCl2, 40 mM KCl, 20 mM 2-mercaptoethanol, 500 mM sucrose), 0.4 μL of a BSA solution (150 μg/mL), 4.5 μL of His-Set9 (0, 2.25 μg/μL), 1 μL of gliotoxin (any of various concentrations) and 0.1 μL of distilled water were mixed and then incubated at room temperature for 1 hour. Then, 2 μL of SAM (10 mM) and 2 μL of a peptidyl MCA (Ac-p53 (369-372)-MCA) solution (0.6 mM) were added thereto, which was then incubated at 37° C. for 1 hour. Thereafter, 30 μL of a trypsin solution (20 mg/mL) was added thereto, followed by incubation at 37° C. for 15 minutes. Then, the fluorescence intensity of the solution was measured at an excitation wavelength (λex) of 390 nm and a fluorescence wavelength (λem) of 460 nm. The final concentration of His-Set9 during the measurement of fluorescence intensity was 0.5 μg/μL. […]
The rate of the inhibition of methylation by gliotoxin was calculated from the results in the left panel and the middle panel of FIG. 18. Specifically, the value (%) was calculated which was obtained by dividing “a value obtained by subtracting “the fluorescence intensity of AMC when peptidase was added but gliotoxin was not added” from “the fluorescence intensity of AMC when both peptidase and gliotoxin were added”” by “a value obtained by subtracting “the fluorescence intensity of AMC when peptidase was added but gliotoxin was not added” from “the fluorescence intensity of AMC when no peptidase or gliotoxin was added”” and multiplying the resultant value by 100. […]
When His-Set7/9 was adopted as a histone methyltransferase, the following method was used. […] Then, the fluorescence intensity of the solution was measured at an excitation wavelength (λex) of 330 nm and a fluorescence wavelength (λem) of 380 nm or at an excitation wavelength (λex) of 390 nm and a fluorescence wavelength (λem) of 460 nm. The final concentration of His-Set7/9 during the measurement of fluorescence intensity was 0 μg/μL or 0.05 μg/μL.

Measured: IC50

CN1C(=O)[C@]23CC4=CC=C[C@H](O)[C@H]4N2C(=O)[C@@]1(CO)SS3 [gliotoxin]
> 100 µM: Example 8, Ac-p53 (369-372)-MCA, AMC fluorescence λex 390 nm/λem 460 nm, FIG. 18, read-out: IC50 for Set9 | Example 14, Ac-ERα(299-302)-MCA, AMC fluorescence λex 390 nm/λem 460 nm, left panel, read-out: IC50 for His-Set7/9 | Example 14, Ac-ERα(299-302)-MCA, peptidyl MCA fluorescence λex 330 nm/λem 380 nm, right panel of FIG. 28, read-out: IC50 for His-Set7/9
